Assay results as given in ChEMBL document CHEMBL3044577, “Evaluation of biological activity of new hemiesters of 17-hydroxy-16,17-secoestra-1,3,5(10)-triene-16-nitrile” (Med Chem Res, 2011).
Active and inactive are the calls of the source. The calls are words filed in the database; no cut-off is given here.

Legend:
MRC5 = experiment: Cytotoxicity against Homo sapiens (human) MRC5 cells at 10^-12 to 10^-6 M after 48 hr by MTT assay; format: cell-based; conditions: mrc5, 48 h
MCF7 [1] = experiment: Growth inhibition of Homo sapiens (human) MCF-7 cells at 10^-12 to 10^-9 M after 48 hr by MTT assay; format: functional
HT-29 [2] = experiment: Growth inhibition of Homo sapiens (human) HT-29 cells at 10^-12 to 10^-9 M after 48 hr by MTT assay; format: functional, cell-based
Rattus norvegicus [3] = experiment: Estrogenic activity in female Rattus norvegicus Wistar (rat)assessed as change in uterine weight at 5 mg/kg, sc QD for 3 days relative to control; conditions: in vivo, 72 h
Aromatase [4] = target: T1, Aromatase (Rattus norvegicus, UniProt P22443); experiment: Inhibition of aromatase in Rattus norvegicus (rat) PMSG-treated denucleated ovarian fraction using testosterone as substrate at 50 uM after 15 min by radioimmuno assay; conditions: 0.25 h
T1 sequence (P22443 whole entry): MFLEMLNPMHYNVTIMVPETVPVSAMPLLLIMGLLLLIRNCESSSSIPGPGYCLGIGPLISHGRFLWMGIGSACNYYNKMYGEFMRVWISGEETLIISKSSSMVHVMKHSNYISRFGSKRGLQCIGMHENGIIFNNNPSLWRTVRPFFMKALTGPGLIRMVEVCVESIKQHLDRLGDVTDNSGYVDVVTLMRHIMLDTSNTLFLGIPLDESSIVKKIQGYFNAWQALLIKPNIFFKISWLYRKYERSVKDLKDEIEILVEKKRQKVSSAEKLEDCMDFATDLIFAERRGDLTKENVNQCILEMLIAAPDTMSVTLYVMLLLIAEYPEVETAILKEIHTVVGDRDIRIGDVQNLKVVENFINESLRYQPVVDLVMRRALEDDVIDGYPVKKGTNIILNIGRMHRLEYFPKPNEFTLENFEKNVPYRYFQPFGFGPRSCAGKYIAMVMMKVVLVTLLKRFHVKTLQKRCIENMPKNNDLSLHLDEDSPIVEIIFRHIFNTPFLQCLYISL

Rattus norvegicus [5] = experiment: Antiestrogenic activity in female Rattus norvegicus Wistar (rat) assessed as decrease in estradiol benzoate-induced uterine weight at 5 mg/kg, sc QD for 3 days relative to control; format: functional; conditions: 72 h, route subcutaneous
Aromatase [6] = target: T1, Aromatase; experiment: Inhibition of aromatase in Rattus norvegicus (rat) PMSG-treated denucleated ovarian fraction using testosterone as substrate at 10 uM after 15 min by radioimmuno assay; conditions: 0.25 h
Rattus norvegicus [7] = experiment: Antiestrogenic activity in female Rattus norvegicus Wistar (rat) assessed as decrease in estradiol benzoate-induced uterine weight at 25 mg/kg, sc QD for 3 days relative to control; format: functional; conditions: 72 h, route subcutaneous
Rattus norvegicus [8] = experiment: Estrogenic activity in female Rattus norvegicus Wistar (rat) assessed as change in uterine weight at 25 mg/kg, sc QD for 3 days relative to control; conditions: in vivo, 72 h
MCF7 [9] = experiment: Growth inhibition of Homo sapiens (human) MCF-7 cells at 10^-12 to 10^-7 M after 48 hr by MTT assay; format: functional
MCF7 [10] = experiment: Growth inhibition of Homo sapiens (human) MCF-7 cell growth at 10^-6 M after 48 hr by MTT assay; format: functional, cell-based
HT-29 [11] = experiment: Growth inhibition of Homo sapiens (human) HT-29 cells at 10^-12 to 10^-6 M after 48 hr by MTT assay; format: functional
MCF7 [12] = experiment: Induction of Homo sapiens (human) MCF7 cell growth at 10^-6 M after 48 hr by MTT assay; conditions: mcf7, 48 h, 1 µM
MDA-MB-231 = format: functional, Homo sapiens
Description: Growth inhibition of Homo sapiens (human) MDA-MB-231 cells at 10^-12 to 10^-6 M after 48 hr by MTT assay

MCF7 [13] = experiment: Growth inhibition of Homo sapiens (human) MCF-7 cells at 10^-12 to 10^-6 M after 48 hr by MTT assay; format: functional
[14] = Growth inhibition of Homo sapiens (human) MRC5 cells at 10^-12 to 10^-6 M after 48 hr by MTT assay; format: cell-based; conditions: read-out: GI

Row | Structure (SMILES) | Activity (MRC5) | growth inhibition (GI) (MCF7 [1]) [%] | growth inhibition (GI) (HT-29 [2]) | Activity (Rattus norvegicus [3]) [%] | inhibition at 50 µM (Aromatase [4]) [%] | inhibition in vivo at 5 mg/kg (Rattus norvegicus [5]) [%] | inhibition at 10 µM (Aromatase [6]) [%] | inhibition in vivo at 25 mg/kg (Rattus norvegicus [7]) [%] | Activity (Rattus norvegicus [8]) [%] | growth inhibition (GI) (MCF7 [9]) | growth inhibition (GI) (MCF7 [10]) | growth inhibition (GI) (HT-29 [11]) | Activity (MCF7 [12]) | growth inhibition (GI) (MDA-MB-231) [%] | growth inhibition (GI) (MCF7 [13]) [%] | inhibition at 48 h [14] [%]
1 | C[C@]1(COC(=O)CCCC(=O)O)CC[C@@H]2c3ccc(OCc4ccccc4)cc3CC[C@H]2[C@@H]1CC#N | Non-toxic | 20 | Active | -3.92 | 88.2 | 8.5 | 17.9 |  |  |  |  |  |  |  |  | 
2 | C[C@]1(CO)CC[C@@H]2c3ccc(O)cc3CC[C@H]2[C@@H]1CC#N |  |  |  | -2.06 |  | 21.1 |  |  |  |  |  |  |  |  |  | 
3 | CC/C(=C(\c1ccccc1)c1ccc(OCCN(C)C)cc1)c1ccccc1.O=C(O)CC(O)(CC(=O)O)C(=O)O [TAMOXIFEN CITRATE] |  |  |  | 39.78 |  |  |  | 62.8 | 39.36 | Active | inactive | Active | Non-toxic | 30 |  | 
4 | C[C@]1(CO)CC[C@@H]2c3ccc(OCc4ccccc4)cc3CC[C@H]2[C@@H]1CC#N |  |  |  | 0.71 |  | 31.5 |  |  |  |  |  |  |  |  |  | 
5 | C[C@]1(COC(=O)CCC(=O)O)CC[C@@H]2c3ccc(O)cc3CC[C@H]2[C@@H]1CC#N |  |  |  | -6.78 | 0.1 | 41.6 | -10.6 | 11.9 | 6.42 |  |  | 30% |  | 30 | 30 | 
6 | C[C@]1(COC(=O)CCC(=O)O)CC[C@@H]2c3ccc(OCc4ccccc4)cc3CC[C@H]2[C@@H]1CC#N |  |  |  | -2.28 | 21.2 | 2.82 | 7.02 |  |  |  |  | 40% |  | 40 | 40 | 40
7 | C[C@]12CC[C@@H]3c4ccc(O)cc4CC[C@H]3[C@@H]1CC[C@@H]2O [ESTRADIOL] |  |  |  |  |  |  |  |  |  | 10% | inactive | 20% | Non-toxic |  |  | 
8 | C[C@]1(COC(=O)CCCC(=O)O)CC[C@@H]2c3ccc(O)cc3CC[C@H]2[C@@H]1CC#N |  |  |  | -9.63 | 67.3 | 13.8 | 16.6 |  |  |  |  | 10% |  | 10 | 10 | 10
